± gives the expanded uncertainty stated by the source.
Test: mn = molality of the nth substance listed, in mol/kg
Conditions: 101 kPa, Liquid; for viscosity: Falling or rolling sphere viscometry; for speed of sound: Frequency=3 MHz, Single path-length method; for mass density: Vibrating tube method

NNC(=O)c1ccncc1 [isonicotinic acid hydrazide] + O
Conditions | mass density [kg/m3] | speed of sound [m/s] | viscosity [mPa·s]
293.15 K, m1 = 0.0255 | 999.11 ± 0.3 | 1485.3 ± 7 | 1.006 ± 0.061
293.15 K, m1 = 0.0494 | 999.92 ± 0.3 | 1486.9 ± 7 | 1.012 ± 0.061
293.15 K, m1 = 0.0754 | 1000.8 ± 0.3 | 1488.6 ± 7 | 1.018 ± 0.062
293.15 K, m1 = 0.1 | 1001.64 ± 0.3 | – | 1.024 ± 0.062
293.15 K, m1 = 0.1253 | 1002.5 ± 0.3 | 1491.8 ± 7 | 1.03 ± 0.062
293.15 K, m1 = 0.15 | 1003.35 ± 0.31 | 1493.4 ± 7 | 1.037 ± 0.063
293.15 K, m1 = 0.2002 | 1005.07 ± 0.31 | 1496.5 ± 7 | 1.049 ± 0.063
293.15 K, m1 = 0.2492 | 1006.75 ± 0.31 | 1499.4 ± 7 | 1.062 ± 0.064
293.15 K, m1 = 0.3001 | 1008.5 ± 0.31 | 1502.4 ± 7 | 1.075 ± 0.065
293.15 K, m1 = 0.3489 | 1010.18 ± 0.31 | 1505.1 ± 7 | 1.088 ± 0.066
293.15 K, m1 = 0.4003 | 1011.96 ± 0.31 | 1507.9 ± 7 | 1.102 ± 0.067
298.15 K, m1 = 0.0255 | 997.93 ± 0.3 | 1498.6 ± 7 | 0.8937 ± 0.054
298.15 K, m1 = 0.0494 | 998.74 ± 0.3 | 1500.2 ± 7 | 0.8984 ± 0.054
298.15 K, m1 = 0.0754 | 999.61 ± 0.3 | 1501.9 ± 7 | 0.9036 ± 0.055
298.15 K, m1 = 0.1 | 1000.45 ± 0.3 | – | 0.9086 ± 0.055
298.15 K, m1 = 0.1253 | 1001.3 ± 0.3 | 1505.1 ± 7 | 0.9138 ± 0.055
298.15 K, m1 = 0.15 | 1002.14 ± 0.3 | 1506.6 ± 7 | 0.9191 ± 0.056
298.15 K, m1 = 0.2002 | 1003.84 ± 0.31 | 1509.7 ± 7 | 0.9298 ± 0.056
298.15 K, m1 = 0.2492 | 1005.51 ± 0.31 | 1512.6 ± 7 | 0.9401 ± 0.057
298.15 K, m1 = 0.3001 | 1007.25 ± 0.31 | 1515.6 ± 7 | 0.951 ± 0.058
298.15 K, m1 = 0.3489 | 1008.91 ± 0.31 | 1518.4 ± 7 | 0.9616 ± 0.058
298.15 K, m1 = 0.4003 | 1010.67 ± 0.31 | 1521.3 ± 7 | 0.9729 ± 0.059
303.15 K, m1 = 0.0255 | 996.53 ± 0.3 | 1510.1 ± 7 | 0.8001 ± 0.048
303.15 K, m1 = 0.0494 | 997.34 ± 0.3 | 1511.6 ± 7 | 0.804 ± 0.049
303.15 K, m1 = 0.0754 | 998.21 ± 0.3 | 1513.3 ± 7 | 0.8084 ± 0.049
303.15 K, m1 = 0.1 | 999.03 ± 0.3 | – | 0.8125 ± 0.049
303.15 K, m1 = 0.1253 | 999.88 ± 0.3 | 1516.4 ± 7 | 0.8169 ± 0.049
303.15 K, m1 = 0.15 | 1000.71 ± 0.3 | 1517.9 ± 7 | 0.8213 ± 0.05
303.15 K, m1 = 0.2002 | 1002.4 ± 0.3 | 1521 ± 7 | 0.8301 ± 0.05
303.15 K, m1 = 0.2492 | 1004.05 ± 0.31 | 1523.9 ± 7 | 0.8389 ± 0.051
303.15 K, m1 = 0.3001 | 1005.77 ± 0.31 | 1526.9 ± 7 | 0.8482 ± 0.051
303.15 K, m1 = 0.3489 | 1007.42 ± 0.31 | 1529.7 ± 7 | 0.8571 ± 0.052
303.15 K, m1 = 0.4003 | 1009.16 ± 0.31 | 1532.6 ± 7 | 0.8661 ± 0.052
308.15 K, m1 = 0.0255 | 994.92 ± 0.31 | 1521.4 ± 7 | 0.7213 ± 0.044
308.15 K, m1 = 0.0494 | 995.72 ± 0.31 | 1522.9 ± 7 | 0.7246 ± 0.044
308.15 K, m1 = 0.0754 | 996.58 ± 0.3 | 1524.5 ± 7 | 0.7282 ± 0.044
308.15 K, m1 = 0.1 | 997.4 ± 0.3 | – | 0.7317 ± 0.044
308.15 K, m1 = 0.1253 | 998.25 ± 0.3 | 1527.6 ± 7 | 0.7353 ± 0.044
308.15 K, m1 = 0.15 | 999.08 ± 0.3 | 1529.1 ± 7 | 0.7389 ± 0.045
308.15 K, m1 = 0.2002 | 1000.75 ± 0.3 | 1532.2 ± 7 | 0.7463 ± 0.045
308.15 K, m1 = 0.2492 | 1002.39 ± 0.3 | 1535.1 ± 7 | 0.7537 ± 0.046
308.15 K, m1 = 0.3001 | 1004.1 ± 0.31 | 1538.1 ± 7 | 0.7612 ± 0.046
308.15 K, m1 = 0.3489 | 1005.74 ± 0.31 | 1540.9 ± 7 | 0.7687 ± 0.046
308.15 K, m1 = 0.4003 | 1007.46 ± 0.31 | 1543.8 ± 7 | 0.7765 ± 0.047
313.15 K, m1 = 0.0255 | 993.1 ± 0.31 | 1528.4 ± 7 | 0.6545 ± 0.04
313.15 K, m1 = 0.0494 | 993.89 ± 0.31 | 1529.8 ± 7 | 0.6572 ± 0.04
313.15 K, m1 = 0.0754 | 994.75 ± 0.31 | 1531.4 ± 7 | 0.6602 ± 0.04
313.15 K, m1 = 0.1 | 995.57 ± 0.31 | – | 0.6632 ± 0.04
313.15 K, m1 = 0.1253 | 996.41 ± 0.31 | 1534.4 ± 7 | 0.6663 ± 0.04
313.15 K, m1 = 0.15 | 997.23 ± 0.3 | 1535.8 ± 7 | 0.6693 ± 0.041
313.15 K, m1 = 0.2002 | 998.9 ± 0.3 | 1538.8 ± 7 | 0.6756 ± 0.041
313.15 K, m1 = 0.2492 | 1000.53 ± 0.3 | 1541.7 ± 7 | 0.6818 ± 0.041
313.15 K, m1 = 0.3001 | 1002.22 ± 0.3 | 1544.6 ± 7 | 0.6882 ± 0.042
313.15 K, m1 = 0.3489 | 1003.84 ± 0.31 | 1547.3 ± 7 | 0.6944 ± 0.042
313.15 K, m1 = 0.4003 | 1005.55 ± 0.31 | 1550.2 ± 7 | 0.7007 ± 0.042
318.15 K, m1 = 0.0255 | 991.08 ± 0.31 | 1534.5 ± 7 | 0.5987 ± 0.036
318.15 K, m1 = 0.0494 | 991.87 ± 0.31 | 1535.9 ± 7 | 0.6009 ± 0.036
318.15 K, m1 = 0.0754 | 992.73 ± 0.31 | 1537.4 ± 7 | 0.6034 ± 0.036
318.15 K, m1 = 0.1 | 993.54 ± 0.31 | – | 0.6058 ± 0.037
318.15 K, m1 = 0.1253 | 994.38 ± 0.31 | 1540.3 ± 7 | 0.6084 ± 0.037
318.15 K, m1 = 0.15 | 995.19 ± 0.31 | 1541.7 ± 7 | 0.611 ± 0.037
318.15 K, m1 = 0.2002 | 996.85 ± 0.3 | 1544.5 ± 7 | 0.6163 ± 0.037
318.15 K, m1 = 0.2492 | 998.46 ± 0.3 | 1547.3 ± 7 | 0.6215 ± 0.038
318.15 K, m1 = 0.3001 | 1000.14 ± 0.3 | 1550.2 ± 7 | 0.6268 ± 0.038
318.15 K, m1 = 0.3489 | 1001.75 ± 0.3 | 1552.9 ± 7 | 0.6321 ± 0.038
318.15 K, m1 = 0.4003 | 1003.44 ± 0.31 | 1555.7 ± 7 | 0.6375 ± 0.038

O [water] + NNC(=O)c1ccncc1
m2 = 0
Conditions | mass density [kg/m3] | speed of sound [m/s] | viscosity [mPa·s]
293.15 K | – | 1483.6 ± 7 | 1.002 ± 0.061
298.15 K | – | – | 0.8903 ± 0.054
303.15 K | – | 1508.4 ± 7 | 0.7973 ± 0.048
308.15 K | 994.07 ± 0.31 | – | 0.719 ± 0.043
313.15 K | – | 1526.8 ± 7 | 0.6526 ± 0.04
318.15 K | – | 1533 ± 7 | 0.5972 ± 0.036

Reference: the NIST ThermoML archive (doi:10.1016/j.jct.2019.01.024)
